According to ChEMBL document CHEMBL5465560, “Selectivity Literature for EUbOPEN Chemogenomic Library” (2024):

Legend:
[1] = target: T1, Casein kinase I isoform alpha-like (Homo sapiens) (UniProt Q8N752); test: Selectivity interaction (KinomeScan (DiscoverX)) EUB0001049a CSNK1A1L; details: at 1 µM
T1 sequence (whole entry): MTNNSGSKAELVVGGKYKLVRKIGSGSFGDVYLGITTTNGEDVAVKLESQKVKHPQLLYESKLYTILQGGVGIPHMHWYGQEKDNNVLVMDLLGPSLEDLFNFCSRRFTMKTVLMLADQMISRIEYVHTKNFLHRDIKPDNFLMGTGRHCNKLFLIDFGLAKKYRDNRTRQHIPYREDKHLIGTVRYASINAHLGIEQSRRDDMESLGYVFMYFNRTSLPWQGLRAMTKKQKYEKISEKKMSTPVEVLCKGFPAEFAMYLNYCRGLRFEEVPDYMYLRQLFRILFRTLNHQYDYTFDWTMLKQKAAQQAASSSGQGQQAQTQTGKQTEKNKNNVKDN

[2] = target: TGF-beta receptor type-2 (Homo sapiens) (UniProt P37173); test: Selectivity interaction (KinomeScan (DiscoverX)) EUB0000229b TGFBR2; details: at 10 µM
[3] = target: Tyrosine-protein kinase Fgr (Homo sapiens) (UniProt P09769); test: Selectivity interaction (KinomeScan (DiscoverX)) EUB0001079a FGR; details: at 1 µM
[4] = target: Transcription initiation factor TFIID subunit 1 (Homo sapiens) (UniProt P21675); test: Selectivity interaction (Bromodomain panel (DSF asssay)) EUB0000270b TAF1
[5] = target: Calcium/calmodulin-dependent protein kinase type II subunit beta (Homo sapiens) (UniProt Q13554); test: Selectivity interaction (ActivX KiNativ screen (kinase selectivity in THP-1 cell lysates)) EUB0000639a CAMK2B; assay type: subcellular; details: lysate, at 0.2 µM
[6] = target: Interferon-induced, double-stranded RNA-activated protein kinase (Homo sapiens) (UniProt P19525); test: Selectivity interaction (ActivX KiNativ screen (kinase selectivity in THP-1 cell lysates)) EUB0000639a EIF2AK2; assay type: subcellular; details: lysate, at 0.01 µM
[7] = target: Casein kinase I isoform delta (Homo sapiens, UniProt P48730); test: Selectivity interaction (KinomeScan (DiscoverX)) EUB0000595a CSNK1D; details: at 10 µM
[8] = target: Mitogen-activated protein kinase kinase kinase 4 (Homo sapiens) (UniProt Q9Y6R4); test: Selectivity interaction (KinomeScan (DiscoverX)) EUB0000595a MAP3K4; details: at 10 µM
Mitogen-activated protein kinase kinase kinase 4 (Homo sapiens), sequence (Q9Y6R4 whole entry): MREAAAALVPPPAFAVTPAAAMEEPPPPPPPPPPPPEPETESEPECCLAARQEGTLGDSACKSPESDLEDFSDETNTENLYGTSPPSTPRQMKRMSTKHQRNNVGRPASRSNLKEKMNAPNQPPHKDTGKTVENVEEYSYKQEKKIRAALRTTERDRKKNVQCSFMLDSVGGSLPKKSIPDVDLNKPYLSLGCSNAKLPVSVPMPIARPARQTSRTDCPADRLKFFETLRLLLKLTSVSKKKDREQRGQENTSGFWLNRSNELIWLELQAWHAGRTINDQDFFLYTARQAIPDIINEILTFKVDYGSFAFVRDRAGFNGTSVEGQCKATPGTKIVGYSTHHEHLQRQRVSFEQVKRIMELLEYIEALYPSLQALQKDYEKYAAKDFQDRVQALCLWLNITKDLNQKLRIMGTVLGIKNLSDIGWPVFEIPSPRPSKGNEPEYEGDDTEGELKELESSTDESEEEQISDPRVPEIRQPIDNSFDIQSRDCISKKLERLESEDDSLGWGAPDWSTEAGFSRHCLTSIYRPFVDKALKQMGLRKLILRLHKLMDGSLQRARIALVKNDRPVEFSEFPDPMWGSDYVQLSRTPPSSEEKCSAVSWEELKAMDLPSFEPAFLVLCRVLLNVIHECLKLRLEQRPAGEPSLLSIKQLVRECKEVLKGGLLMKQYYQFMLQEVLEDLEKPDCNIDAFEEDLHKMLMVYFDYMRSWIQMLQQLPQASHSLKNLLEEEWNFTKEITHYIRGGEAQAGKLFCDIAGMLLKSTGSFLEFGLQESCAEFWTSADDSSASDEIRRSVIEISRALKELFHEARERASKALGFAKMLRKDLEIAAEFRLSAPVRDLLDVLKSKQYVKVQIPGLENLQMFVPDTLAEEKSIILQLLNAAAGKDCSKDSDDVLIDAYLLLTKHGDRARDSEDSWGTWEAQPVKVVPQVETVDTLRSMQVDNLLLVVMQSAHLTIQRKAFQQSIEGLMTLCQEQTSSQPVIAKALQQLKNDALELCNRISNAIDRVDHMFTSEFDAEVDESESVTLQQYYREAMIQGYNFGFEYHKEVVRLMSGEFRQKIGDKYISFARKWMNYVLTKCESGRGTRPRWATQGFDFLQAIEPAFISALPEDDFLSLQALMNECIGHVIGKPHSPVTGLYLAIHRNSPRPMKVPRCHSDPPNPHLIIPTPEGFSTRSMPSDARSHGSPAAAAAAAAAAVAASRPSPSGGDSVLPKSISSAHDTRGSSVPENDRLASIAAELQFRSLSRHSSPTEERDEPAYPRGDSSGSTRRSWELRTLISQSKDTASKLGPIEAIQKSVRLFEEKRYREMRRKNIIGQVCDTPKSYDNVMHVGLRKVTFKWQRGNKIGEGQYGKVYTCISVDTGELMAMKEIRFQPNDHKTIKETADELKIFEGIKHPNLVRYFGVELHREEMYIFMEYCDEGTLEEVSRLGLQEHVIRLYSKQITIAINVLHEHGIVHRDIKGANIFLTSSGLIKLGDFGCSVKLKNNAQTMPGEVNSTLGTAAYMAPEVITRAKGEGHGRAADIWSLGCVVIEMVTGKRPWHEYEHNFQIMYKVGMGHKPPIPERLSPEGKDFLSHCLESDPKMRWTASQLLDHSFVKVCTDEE

[9] = target: Vascular endothelial growth factor receptor 3 (Homo sapiens, UniProt P35916); test: Selectivity interaction (Ambit KINOMEscan and KiNATiv profiling in Jurkat cells) EUB0000090b FLT4; assay type: cell-based; details: at 1 µM
[10] = target: Cyclin-dependent kinase 14 (Homo sapiens) (UniProt O94921); test: Selectivity interaction (KinomeScan (DiscoverX)) EUB0000045b CDK14
Cyclin-dependent kinase 14 (Homo sapiens), sequence (O94921 whole entry): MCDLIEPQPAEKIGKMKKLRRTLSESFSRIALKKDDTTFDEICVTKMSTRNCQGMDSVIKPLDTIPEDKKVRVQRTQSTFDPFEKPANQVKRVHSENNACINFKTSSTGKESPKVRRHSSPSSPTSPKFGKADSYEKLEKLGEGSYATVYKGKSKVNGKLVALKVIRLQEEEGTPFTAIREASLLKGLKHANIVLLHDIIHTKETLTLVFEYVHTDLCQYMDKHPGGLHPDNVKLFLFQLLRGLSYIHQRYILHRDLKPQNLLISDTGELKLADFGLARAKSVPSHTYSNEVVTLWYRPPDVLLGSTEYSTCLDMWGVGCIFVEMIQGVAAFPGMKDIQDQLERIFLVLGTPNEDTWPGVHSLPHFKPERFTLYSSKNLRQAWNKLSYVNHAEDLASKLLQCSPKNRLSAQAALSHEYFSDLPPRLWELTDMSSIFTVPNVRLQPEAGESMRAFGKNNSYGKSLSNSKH

[11] = target: Tyrosine-protein kinase Fyn (Homo sapiens) (UniProt P06241); test: Selectivity interaction (KinomeScan (DiscoverX)) EUB0000045b FYN
Tyrosine-protein kinase Fyn (Homo sapiens), sequence (P06241 2-537 limits assumed): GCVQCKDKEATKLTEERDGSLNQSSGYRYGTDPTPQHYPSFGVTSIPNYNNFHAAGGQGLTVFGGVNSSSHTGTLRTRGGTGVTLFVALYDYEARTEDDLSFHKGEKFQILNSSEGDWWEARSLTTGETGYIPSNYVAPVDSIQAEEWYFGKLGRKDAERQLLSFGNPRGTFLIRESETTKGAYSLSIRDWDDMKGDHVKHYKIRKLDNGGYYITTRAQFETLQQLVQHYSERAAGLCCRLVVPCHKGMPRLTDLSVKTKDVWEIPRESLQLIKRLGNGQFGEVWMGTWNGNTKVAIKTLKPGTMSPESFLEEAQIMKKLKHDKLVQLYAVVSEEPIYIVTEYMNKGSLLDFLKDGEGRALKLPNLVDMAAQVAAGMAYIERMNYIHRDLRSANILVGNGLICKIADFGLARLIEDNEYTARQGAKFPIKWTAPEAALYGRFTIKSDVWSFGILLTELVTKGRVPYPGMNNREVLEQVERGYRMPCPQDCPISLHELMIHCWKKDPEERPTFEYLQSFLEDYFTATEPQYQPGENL

[12] = target: Tyrosine-protein kinase JAK1 (Homo sapiens, UniProt P23458); test: Selectivity interaction (KinomeScan (DiscoverX)) EUB0000045b JAK1
Tyrosine-protein kinase JAK1, sequence (P23458 whole entry): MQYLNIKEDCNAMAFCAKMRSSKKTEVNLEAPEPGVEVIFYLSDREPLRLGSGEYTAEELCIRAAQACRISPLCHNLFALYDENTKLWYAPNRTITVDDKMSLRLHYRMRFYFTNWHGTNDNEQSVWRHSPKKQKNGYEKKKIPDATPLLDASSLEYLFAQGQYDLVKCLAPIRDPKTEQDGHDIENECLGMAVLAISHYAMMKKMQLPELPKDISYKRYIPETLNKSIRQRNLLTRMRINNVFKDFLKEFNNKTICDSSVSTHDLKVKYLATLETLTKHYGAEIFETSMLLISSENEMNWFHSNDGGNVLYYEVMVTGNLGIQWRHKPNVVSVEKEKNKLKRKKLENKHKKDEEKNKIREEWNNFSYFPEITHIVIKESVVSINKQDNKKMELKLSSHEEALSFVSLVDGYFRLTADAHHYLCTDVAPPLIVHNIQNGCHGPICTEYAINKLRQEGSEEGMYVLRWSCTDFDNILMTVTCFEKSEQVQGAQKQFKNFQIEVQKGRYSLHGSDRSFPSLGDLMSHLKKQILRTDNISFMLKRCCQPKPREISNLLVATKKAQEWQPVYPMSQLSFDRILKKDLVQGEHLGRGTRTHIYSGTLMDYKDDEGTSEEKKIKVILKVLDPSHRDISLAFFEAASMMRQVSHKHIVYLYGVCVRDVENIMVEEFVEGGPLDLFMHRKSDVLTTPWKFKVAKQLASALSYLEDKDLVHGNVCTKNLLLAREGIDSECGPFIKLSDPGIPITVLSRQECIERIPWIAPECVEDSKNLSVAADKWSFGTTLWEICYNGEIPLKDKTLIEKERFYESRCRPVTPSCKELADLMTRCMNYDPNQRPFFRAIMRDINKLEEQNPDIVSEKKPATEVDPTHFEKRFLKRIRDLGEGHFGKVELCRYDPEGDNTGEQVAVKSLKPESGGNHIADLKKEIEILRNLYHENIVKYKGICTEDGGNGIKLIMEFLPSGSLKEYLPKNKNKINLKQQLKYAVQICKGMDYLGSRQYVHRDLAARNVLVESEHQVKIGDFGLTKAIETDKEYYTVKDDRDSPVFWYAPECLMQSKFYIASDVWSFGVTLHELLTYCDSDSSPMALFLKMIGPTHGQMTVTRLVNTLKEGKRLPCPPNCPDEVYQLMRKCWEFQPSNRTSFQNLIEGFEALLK

[13] = target: Ephrin type-A receptor 5 (Homo sapiens) (UniProt P54756); test: Selectivity interaction (KinomeScan (DiscoverX)) EUB0000618a EPHA5; details: at 10 µM
[14] = target: T2, Tyrosine-protein kinase ZAP-70 (Homo sapiens) (UniProt P43403); test: Selectivity interaction (KinomeScan (DiscoverX)) EUB0001619a ZAP70; details: at 1 µM
T2 sequence (whole entry): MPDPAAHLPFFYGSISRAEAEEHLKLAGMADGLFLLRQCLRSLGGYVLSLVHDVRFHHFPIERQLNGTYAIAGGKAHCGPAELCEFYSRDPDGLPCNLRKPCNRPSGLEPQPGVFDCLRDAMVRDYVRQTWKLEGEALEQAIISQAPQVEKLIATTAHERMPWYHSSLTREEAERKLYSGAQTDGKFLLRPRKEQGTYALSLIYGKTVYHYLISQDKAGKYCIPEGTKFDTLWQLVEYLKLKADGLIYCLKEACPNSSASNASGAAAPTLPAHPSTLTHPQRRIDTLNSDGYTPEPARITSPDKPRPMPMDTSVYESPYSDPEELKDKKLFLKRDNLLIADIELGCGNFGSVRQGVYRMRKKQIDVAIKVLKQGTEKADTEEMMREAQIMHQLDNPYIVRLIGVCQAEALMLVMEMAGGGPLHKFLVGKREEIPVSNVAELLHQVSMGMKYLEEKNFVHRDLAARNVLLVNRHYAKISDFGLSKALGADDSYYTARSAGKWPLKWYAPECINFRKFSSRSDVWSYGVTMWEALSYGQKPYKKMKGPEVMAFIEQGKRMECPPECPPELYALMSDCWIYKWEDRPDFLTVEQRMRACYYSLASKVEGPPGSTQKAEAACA

[15] = target: Serine/threonine-protein kinase 33 (Homo sapiens) (UniProt Q9BYT3); test: Selectivity interaction (KinomeScan (DiscoverX)) EUB0000655a STK33; details: at 10 µM
[16] = target: Wee1-like protein kinase (Homo sapiens) (UniProt P30291); test: Selectivity interaction (KinomeScan (DiscoverX)) EUB0000655a WEE1; details: at 10 µM
[17] = target: Mitogen-activated protein kinase kinase kinase 4 (Homo sapiens) (UniProt Q9Y6R4); test: Selectivity interaction (KinomeScan (DiscoverX)) EUB0000695a MAP3K4; details: at 100 nM
[18] = target: T3, cAMP-dependent protein kinase catalytic subunit PRKX (Homo sapiens) (UniProt P51817); test: Selectivity interaction (KinomeScan (DiscoverX)) EUB0000695a PRKX; details: at 100 nM
T3 sequence (whole entry): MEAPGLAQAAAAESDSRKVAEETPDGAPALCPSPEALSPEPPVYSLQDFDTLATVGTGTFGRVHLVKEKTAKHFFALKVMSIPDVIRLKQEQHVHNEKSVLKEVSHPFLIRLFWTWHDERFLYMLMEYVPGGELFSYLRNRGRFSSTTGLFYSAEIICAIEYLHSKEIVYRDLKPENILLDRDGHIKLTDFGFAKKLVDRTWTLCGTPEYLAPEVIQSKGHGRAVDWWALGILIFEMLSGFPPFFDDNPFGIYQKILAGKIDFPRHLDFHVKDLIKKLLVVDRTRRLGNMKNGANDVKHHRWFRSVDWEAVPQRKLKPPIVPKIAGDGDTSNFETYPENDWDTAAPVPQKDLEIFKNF

[19] = target: Serine/threonine-protein kinase SIK2 (Homo sapiens) (UniProt Q9H0K1); test: Selectivity interaction (KinomeScan (DiscoverX)) EUB0000607a SIK2; details: at 10 µM
[20] = target: Mitogen-activated protein kinase 7 (Homo sapiens) (UniProt Q13164); test: Selectivity interaction (Rxn Biology Kinase assay) EUB0001632a MAPK7; details: at 10 µM
[21] = target: MAP/microtubule affinity-regulating kinase 3 (Homo sapiens) (UniProt P27448); test: Selectivity interaction (ProQinase) EUB0000171b MARK3
MAP/microtubule affinity-regulating kinase 3 (Homo sapiens), sequence (P27448 whole entry, looked up): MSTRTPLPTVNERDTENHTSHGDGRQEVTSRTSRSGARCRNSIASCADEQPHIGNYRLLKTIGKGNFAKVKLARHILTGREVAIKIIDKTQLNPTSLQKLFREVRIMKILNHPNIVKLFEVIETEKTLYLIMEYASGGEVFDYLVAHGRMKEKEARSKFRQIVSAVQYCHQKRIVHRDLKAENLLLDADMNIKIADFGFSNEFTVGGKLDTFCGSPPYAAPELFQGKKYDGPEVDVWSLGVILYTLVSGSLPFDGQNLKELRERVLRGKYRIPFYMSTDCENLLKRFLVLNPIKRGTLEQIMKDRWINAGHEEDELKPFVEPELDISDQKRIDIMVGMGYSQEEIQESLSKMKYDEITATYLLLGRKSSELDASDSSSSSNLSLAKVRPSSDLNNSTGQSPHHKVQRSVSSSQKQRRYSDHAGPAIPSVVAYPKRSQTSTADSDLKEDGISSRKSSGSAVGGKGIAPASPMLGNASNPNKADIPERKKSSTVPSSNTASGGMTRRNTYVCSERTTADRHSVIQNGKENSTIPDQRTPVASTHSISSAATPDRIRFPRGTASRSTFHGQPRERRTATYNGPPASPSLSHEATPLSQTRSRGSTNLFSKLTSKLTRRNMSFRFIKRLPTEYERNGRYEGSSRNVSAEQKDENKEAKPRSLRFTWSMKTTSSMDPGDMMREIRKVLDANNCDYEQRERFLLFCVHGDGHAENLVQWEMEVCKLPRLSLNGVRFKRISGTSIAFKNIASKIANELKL

[22] = target: Serine/threonine-protein kinase 16 (Homo sapiens, UniProt O75716); test: Selectivity interaction (ProQinase) EUB0000171b STK16
Serine/threonine-protein kinase 16, sequence (O75716 whole entry): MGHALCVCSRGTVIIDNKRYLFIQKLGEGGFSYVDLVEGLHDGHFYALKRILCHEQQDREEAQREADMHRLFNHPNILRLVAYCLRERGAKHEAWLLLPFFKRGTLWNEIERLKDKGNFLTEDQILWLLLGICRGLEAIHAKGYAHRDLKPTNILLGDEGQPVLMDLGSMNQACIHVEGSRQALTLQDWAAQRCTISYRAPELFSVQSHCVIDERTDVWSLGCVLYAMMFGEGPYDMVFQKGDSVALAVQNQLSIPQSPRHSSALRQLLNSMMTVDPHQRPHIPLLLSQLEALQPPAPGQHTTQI

## COc1cc(Nc2nc(C)cc(-c3cnn4nc(OC)ccc34)n2)cc(C(F)(F)F)c1
[1]
  % of control: 100%

## COc1cc(N(C)c2ccnc3ccc(C(F)(F)F)cc23)cc(OC)c1OC
[2]
  % binding: 94%

## Nc1cnc(N2CCc3cc(S(=O)(=O)Nc4c(F)cc(Cl)cc4F)cc(N4CCCC4=O)c32)nc1 [TP-020n]
[3]
  % of control: 100%

## Cc1cc(CN)cc(C)c1-c1ncn(C)c1-c1cncn1C
[4]
  dTM: -1.17 K

## CC[C@@H]1[C@H](F)C(=O)N[C@@H]1COc1nccc2cc(C(N)=O)c(OC)cc12 [ZIMLOVISERTIB]
[5]
  % of inhibition: 4.9%
[6]
  % of inhibition: -1.7%

## COCC(=O)NC/C=C/c1ccc2ncnc(Nc3ccc(Oc4ccc(C)nc4)c(C)c3)c2c1 [CP-724714]
[7]
  % of control: 90%
[8]
  % of control: 97%

## CN(C)C/C=C/C(=O)Nc1ccc(C(=O)N2CCCC(Nc3ncc(Cl)c(-c4c[nH]c5ccccc45)n3)C2)cc1 (configuration not stated)
[9]
  % of control: 70%

## C=CC(=O)Nc1cc(-n2c(=O)ccc3cnc4ccc(-c5ccc(NS(C)(=O)=O)cc5)cc4c32)ccc1C
[10]; at 1 µM
  % of control: 100%
[10]; at 10 µM
  % of control: 72%
[11]; at 1 µM
  % of control: 100%
[11]; at 10 µM
  % of control: 98%
[12]; at 1 µM
  % of control: 87%
[12]; at 10 µM
  % of control: 76%

## O[C@H]1CC[C@H](Nc2ncc3nc(Nc4c(F)cc(F)cc4F)n([C@H]4CCOC4)c3n2)CC1
[13]
  % of control: 100%

## N#Cc1cccc(-c2c[nH]c3ncnc(N4CCOCC4)c23)c1
[14]
  % of control: 96%

## CN(C)CCOc1ccc(-c2nc(-c3ccncc3)c(-c3ccc4c(c3)CC/C4=N\O)[nH]2)cc1
[15]
  % of control: 88%
[16]
  % of control: 100%

## Cc1cc(F)c(C(=O)Nc2cccc(-c3nncn3C(C)C)n2)cc1-n1cnc(C2CC2)c1
[17]
  % of control: 92%
[18]
  % of control: 100%

## CNC(=O)Nc1ccc(-c2nc(N3CC4CCC(C3)O4)c3cnn(C4CCC5(CC4)OCCO5)c3n2)cc1
[19]
  % of control: 97%

## Cn1cc(-n2cnc3c(NCc4nc5cc(Cl)c(Cl)cc5[nH]4)nc(N4CCOCC4)nc32)cn1
[20]
  % of inhibition: -42.4%

## C=CC(=O)Nc1cccc(C(=O)Nc2ccc(Nc3cc(-c4[nH]c(SC)nc4C)ccn3)cc2)c1
[21]; at 1 µM
  % of control: 82%
[21]; at 5 µM
  % of control: 92%
[22]; at 1 µM
  % of control: 23%
[22]; at 5 µM
  % of control: 6%
